Results published in patent US12358915B2, “METTL3 inhibitory compounds” (STORM THERAPEUTICS LTD., priority 2019, dated 2025).
Where a name gives a salt, the structure may show the parent alone.
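Further: recombinant His-tagged METTL3 with FLAG-tagged METTL14 from baculovirus, SAH product quantified by mass spectrometry against isotope-labelled internal standards, 60 min at room temperature, scaled between no-RNA and DMSO-only wells.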

The compounds below were run against T1, METTL3/14 (Homo sapiens, UniProt Q86U44) (assay: METTL3/14 methyltransferase assay (METTL3_14 RFMS, RapidFire mass spectrometry)). Conditions: 5 nM METTL3/14, 0.2 μM RNA substrate, 0.5 μM SAM; lower limit of the assay IC50=5 nM; Compounds 1-62; read-out: METTL3_14 RFMS IC50.
T1 construct: The enzyme used was full-length his-tagged METTL3; His; made in house
T1 sequence (Q86U44 whole entry): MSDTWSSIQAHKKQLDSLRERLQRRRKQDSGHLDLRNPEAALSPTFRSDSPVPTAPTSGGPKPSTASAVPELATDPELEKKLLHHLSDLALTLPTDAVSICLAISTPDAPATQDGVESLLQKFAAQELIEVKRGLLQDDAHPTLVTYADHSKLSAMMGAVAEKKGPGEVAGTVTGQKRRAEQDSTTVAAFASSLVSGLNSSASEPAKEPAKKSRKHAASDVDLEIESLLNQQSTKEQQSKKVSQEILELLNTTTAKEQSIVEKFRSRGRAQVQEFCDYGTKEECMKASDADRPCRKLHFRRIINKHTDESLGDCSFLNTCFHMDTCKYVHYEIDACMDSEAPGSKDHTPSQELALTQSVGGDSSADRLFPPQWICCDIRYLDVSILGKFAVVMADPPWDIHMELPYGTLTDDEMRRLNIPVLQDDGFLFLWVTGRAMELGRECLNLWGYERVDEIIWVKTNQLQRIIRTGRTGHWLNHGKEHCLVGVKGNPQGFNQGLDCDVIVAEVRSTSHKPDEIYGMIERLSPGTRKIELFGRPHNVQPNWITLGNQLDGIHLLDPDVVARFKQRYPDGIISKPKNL
T1 sequence (Q9HCE5 whole entry partner): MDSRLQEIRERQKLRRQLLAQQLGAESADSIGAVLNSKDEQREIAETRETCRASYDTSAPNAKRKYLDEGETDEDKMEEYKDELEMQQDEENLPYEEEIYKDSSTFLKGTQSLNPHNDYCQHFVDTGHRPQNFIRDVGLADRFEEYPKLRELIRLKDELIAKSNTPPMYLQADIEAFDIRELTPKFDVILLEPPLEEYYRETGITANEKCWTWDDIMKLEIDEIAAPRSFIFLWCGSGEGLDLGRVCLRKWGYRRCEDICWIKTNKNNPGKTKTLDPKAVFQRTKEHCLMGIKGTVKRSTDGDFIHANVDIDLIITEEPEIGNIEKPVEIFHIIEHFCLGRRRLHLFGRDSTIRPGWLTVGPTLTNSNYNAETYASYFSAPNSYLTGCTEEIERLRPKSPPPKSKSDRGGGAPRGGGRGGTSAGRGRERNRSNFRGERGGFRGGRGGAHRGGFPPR
Type: biochemical
An IC50 of 7340 nM was found for `O=C(NCc1cn2cc(NCc3cccnc3)ccc2n1)c1cccc2[nH]ncc12` [Compound 32, N-[(6-{[(pyridin-3-yl)methyl]amino}imidazo[1,2-a]pyridin-2-yl)methyl]-1H-indazole-4-carboxamide] in this work.
An IC50 of 6770 nM was found for `COc1ccc2nc(CNC(=O)c3cc(=O)n4ccccc4n3)cn2c1` [Compound 24, N-({6-methoxyimidazo[1,2-a]pyridin-2-yl}methyl)-4-oxo-4H-pyrido[1,2-a]pyrimidine-2-carboxamide] in this work.
An IC50 of 5050 nM was found for `CNCc1ccc2nc(CNC(=O)c3cccc4[nH]ncc34)cn2c1` [Compound 44, N-({6-[(methylamino)methyl]imidazo[1,2-a]pyridin-2-yl}methyl)-1H-indazole-4-carboxamide dihydrochloride] in this work.
An IC50 of 2780 nM was found for `O=C(NCc1cn2ccc(Br)cc2n1)c1cc(=O)n2ccccc2n1` [Compound 29, N-({7-bromoimidazo[1,2-a]pyridin-2-yl}methyl)-4-oxo-4H-pyrido[1,2-a]pyrimidine-2-carboxamide] in this work.

Same assay, conditions: 5 nM METTL3/14, 0.2 μM RNA substrate, 0.5 μM SAM; lower limit of the assay IC50=5 nM; Compounds 63-265; read-out: METTL3_14 RFMS IC50
An IC50 of 735 nM was found for `O=C(NCc1cn2cc(C3(NCC4CCCCC4)CC3)ccc2n1)c1cc(=O)n2ccccc2n1` [Compound 245, N-[(6-{1-[(cyclohexylmethyl)amino]cyclopropyl}imidazo[1,2-a]pyridin-2-yl)methyl]-4-oxo-4H-pyrido[1,2-a]pyrimidine-2-carboxamide] in this work.
An IC50 of 8370 nM was found for `CC(C)(C)CN1CCOCC1c1ccc2nc(CNC(=O)c3cc(=O)n4ccccc4n3)cn2c1` (stereo not drawn) [Example 232, N-({6-[4-(2,2-dimethylpropyl)morpholin-3-yl]imidazo[1,2-a]pyridin-2-yl}methyl)-4-oxo-4H-pyrido[1,2-a]pyrimidine-2-carboxamide] in this work.
An IC50 of 109 nM was found for `O=C(NCc1cn2cc(CNCC3COC3)ccc2n1)c1cc(=O)n2ccccc2n1` [Compound 111, N-{[6-({[(oxetan-3-yl)methyl]amino}methyl)imidazo[1,2-a]pyridin-2-yl]methyl}-4-oxo-4H-pyrido[1,2-a] pyrimidine-2-carboxamide] in this work.
An IC50 of 1870 nM was found for `O=C(NCc1cn2ccc(CNCC3CC3)cc2n1)c1cc(=O)n2ccccc2n1` [Compound 224, N-[(7-{[(cyclopropylmethyl)amino]methyl}imidazo[1,2-a]pyridin-2-yl)methyl]-4-oxo-4H-pyrido[1,2-a]pyrimidine-2-carboxamide] in this work.
An IC50 of 206 nM was found for `COc1ccc(CNCc2ccc3nc(CNC(=O)c4cc(=O)n5ccccc5n4)cn3c2)cc1` [Compound 71, N-{[6-({[(4-methoxyphenyl)methyl]amino}methyl)imidazo [1,2-a]pyridin-2-yl]methyl}-4-oxo-4H-pyrido [1,2-a]pyrimidine-2-carboxamide] in this work.
An IC50 of 79.2 nM was found for `O=C(NCc1cn2cc(CNCC3CCCOC3)ccc2n1)c1cc(=O)n2ccccc2n1` (stereo not drawn) [Compound 90, N-{[6-({[(oxan-3-yl)methyl]amino}methyl)imidazo [1,2-a]pyridin-2-yl]methyl}-4-oxo-4H-pyrido[1,2-a] pyrimidine-2-carboxamide] in this work.
An IC50 of 25.5 nM was found for `O=C(NCc1cn2cc(CNCCC(F)(F)F)ccc2n1)c1cc(=O)n2ccccc2n1` [Compound 85, 4-oxo-N-[(6-{[(3,3,3-trifluoropropyl)amino]methyl}imidazo[1,2-a]pyridin-2-yl)methyl]-4H-pyrido[1,2-a]pyrimidine-2-carboxamide] in this work.
An IC50 of 214 nM was found for `O=C(NCc1cn2cc(CNCC3CCCCC3)ccc2n1)c1cc(=O)n2c(n1)CCCC2` [Compound 175, N-[(6-{[(cyclohexylmethyl)amino]methyl}imidazo[1,2-a]pyridin-2-yl)methyl]-4-oxo-4H,6H,7H,8H, 9H-pyrido[1,2-a]pyrimidine-2-carboxamide] in this work.
An IC50 of 917 nM was found for `CCN(CC)Cc1ccc2nc(CNC(=O)c3cc(=O)n4ccccc4n3)cn2c1` [Compound 132, N-({6-[(diethylamino)methyl]imidazo [1,2-a]pyridin-2-yl}methyl)-4-oxo-4H-pyrido[1,2-a] pyrimidine-2-carboxamide] in this work.
An IC50 of 299 nM was found for `NCCc1ccc2nc(CNC(=O)c3cc(=O)n4ccccc4n3)cn2c1` [Compound 63, N-{[6-(2-aminoethyl)imidazo[1,2-a]pyridin-2-yl]methyl}-4-oxo-4H-pyrido[1,2-a]pyrimidine-2-carboxamide] in this work.
An IC50 of 480 nM was found for `O=C(NCc1cn2cc(CN3CCCC3)ccc2n1)c1cc(=O)n2ccccc2n1` [Compound 133, 4-oxo-N-({6-[(pyrrolidin-1-yl)methyl]imidazo[1,2-a]pyridin-2-yl}methyl)-4H-pyrido[1,2-a] pyrimidine-2-carboxamide] in this work.
An IC50 of 224 nM was found for `CC1(C)COC(CNCc2ccc3nc(CNC(=O)c4cc(=O)n5ccccc5n4)cn3c2)C1` (stereo not drawn) [Compound 147, N-{[6-({[(4,4-dimethyloxolan-2-yl)methyl]amino}methyl)imidazo[1,2-a]pyridin-2-yl]methyl}-4-oxo-4H-pyrido[1,2-a] pyrimidine-2-carboxamide] in this work.
An IC50 of 93.2 nM was found for `CC1(CNCc2ccc3nc(CNC(=O)c4cc(=O)n5ccccc5n4)cn3c2)CCCO1` (stereo not drawn) [Compound 160, N-{[6-({[(2-methyloxolan-2-yl)methyl]amino}methyl)imidazo [1,2-a]pyridin-2-yl]methyl}-4-oxo-4H-pyrido [1,2-a]pyrimidine-2-carboxamide] in this work.
An IC50 of 84 nM was found for `O=C(NCc1cn2cc(CNCc3ccccc3F)ccc2n1)c1cc(=O)n2ccccc2n1` [Compound 77, N-{[6-({[(2-fluorophenyl)methyl]amino}methyl)imidazo [1,2-a]pyridin-2-yl]methyl}-4-oxo-4H-pyrido[1,2-a]pyrimidine-2-carboxamide] in this work.
An IC50 of 850 nM was found for `O=C(NCc1cn2cc(CNC(=O)C3CCCCC3)ccc2n1)c1cc(=O)n2ccccc2n1` [Compound 238, N-({6-[(cyclohexylformamido)methyl]imidazo[1,2-a]pyridin-2-yl}methyl)-4-oxo-4H-pyrido[1,2-a]pyrimidine-2-carboxamide] in this work.
An IC50 of 119 nM was found for `O=C(NCc1cn2cc(CNC3CCCOC3)ccc2n1)c1cc(=O)n2ccccc2n1` (stereo not drawn) [Compound 124, N-[(6-{[(oxan-3-yl)amino]methyl}imidazo[1,2-a]pyridin-2-yl)methyl]-4-oxo-4H-pyrido [1,2-a]pyrimidine-2-carboxamide] in this work.

Same assay, conditions: 5 nM METTL3/14, 0.2 μM RNA substrate, 0.5 μM SAM; lower limit of the assay IC50=5 nM; Compounds 266-351; read-out: METTL3_14 RFMS IC50
An IC50 of 303 nM was found for `O=C(NCc1cn2cc(CN3CC4CC3CO4)ccc2n1)c1cc(=O)n2ccccc2n1` (stereo not drawn) [Compound 349, N-{[6-({2-oxa-5-azabicyclo[2.2.1]heptan-5-yl}methyl)imidazo[1,2-a]pyridin-2-yl]methyl}-4-oxo-4H-pyrido[1,2-a]pyrimidine-2-carboxamide] in this work.
An IC50 of 52.1 nM was found for `CC1(C)CCN(Cc2ccc3nc(CNC(=O)c4cc(OCCOCCN)cc5[nH]ncc45)cn3c2)CC1` [Example 312, 6-[2-(2-aminoethoxy)ethoxy]-N-[[6-[(4,4-dimethyl-1-piperidyl)methyl]imidazo[1,2-a]pyridin-2-yl]methyl]-1H-indazole-4-carboxamide trihydrochloride] in this work.
An IC50 of 76.3 nM was found for `O=C(NCc1cn2cc(CNCC3CC4(CCC4)C3)ccc2n1)c1cc(=O)n2ccccc2n1` [Compound 277, 4-oxo-N-[[6-[(spiro[3.3]heptan-2-ylmethylamino)methyl]imidazo[1,2-a]pyridin-2-yl]methyl]pyrido[1,2-a]pyrimidine-2-carboxamide] in this work.

Same assay, conditions: read-out: METTL3_14 RFMS IC50
An IC50 of 7110 nM was found for `O=C(NCc1cn2cc(C(Cc3ccccc3)N(CC3CCC3)CC3CCC3)ccc2n1)c1cc(=O)n2ccccc2n1` (stereo not drawn) [Example 314] in this work.
